Reference: PubChem BioAssay AID248 (DTP/NCI, 2004)
Where “and” joins values, the source holds several entries; their conditions need not be identical. Equal values may be shown once. Inconclusive results and toxic doses are left out. No stated cut-off is given here; in the data, active means T/C of 150% or more; inactive means T/C below 125%.

Test system: L1210 leukemia ip in BDF1 mice, survival T/C
Assay: NCI In Vivo Anticancer Drug Screen. Data for tumor model L1210 Leukemia (intraperitoneal) in B6D2F1 (BDF1) mice
Conditions: endpoint: mean survival time, higher = longer survival
In short: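 Value reflects the ratio of survival in compound-treated mice to survival in vehicle-treated controls, with both groups carrying the same transplanted tumor.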

[1] = dose: 100.0 mg/kg/injection, schedule: Q01DX001 (ip), vehicle: saline with Tween-80
[2] = dose: 200.0 mg/kg/injection, schedule: Q01DX001 (ip), vehicle: saline with Tween-80
[3] = dose: 400.0 mg/kg/injection, schedule: Q01DX001 (ip), vehicle: saline with Tween-80
[4] = dose: 100.0 mg/kg/injection, schedule: Q04DX002 (ip), vehicle: saline with Tween-80
[5] = dose: 200.0 mg/kg/injection, schedule: Q04DX002 (ip), vehicle: saline with Tween-80
[6] = dose: 400.0 mg/kg/injection, schedule: Q04DX002 (ip), vehicle: saline with Tween-80
[7] = dose: 100.0 mg/kg/injection, schedule: Q01DX001 (ip), vehicle: saline
[8] = dose: 200.0 mg/kg/injection, schedule: Q01DX001 (ip), vehicle: saline
[9] = dose: 100.0 mg/kg/injection, schedule: Q01DX009 (ip), vehicle: saline
[10] = dose: 100.0 mg/kg/injection, schedule: Q04DX003 (ip), vehicle: Klucel (hydroxypropylcellulose) (HPC)
[11] = dose: 200.0 mg/kg/injection, schedule: Q01DX009 (ip), vehicle: saline
[12] = dose: 200.0 mg/kg/injection, schedule: Q04DX003 (ip), vehicle: Klucel (hydroxypropylcellulose) (HPC)
[13] = dose: 400.0 mg/kg/injection, schedule: Q01DX009 (ip), vehicle: saline
[14] = dose: 400.0 mg/kg/injection, schedule: Q04DX003 (ip), vehicle: Klucel (hydroxypropylcellulose) (HPC)
[15] = dose: 100.0 mg/kg/injection, schedule: Q04DX002 (ip), vehicle: Klucel (hydroxypropylcellulose) (HPC)
[16] = dose: 200.0 mg/kg/injection, schedule: Q04DX002 (ip), vehicle: Klucel (hydroxypropylcellulose) (HPC)
[17] = dose: 400.0 mg/kg/injection, schedule: Q04DX002 (ip), vehicle: Klucel (hydroxypropylcellulose) (HPC)

Measured: T/C

O=C1CC(c2ccccc2)C2(c3ccccc3)OC12 (stereo unspecified)
inactive: [1] 101 % of control | [2] 94 % of control | [3] 111 % of control

C/C=C(\CC)C(=O)O.[Pb]
inactive: dose: 50.0 mg/kg/injection, schedule: Q04DX002 (ip), vehicle: saline with Tween-80 97 % of control | [4] 96 % of control and 119 % of control | [5] 100 % of control | [6] 92 % of control

COCCOC(=O)c1ccc(C(=N)N)cc1
inactive: [7] 106 % of control | [8] 100 % of control

CC(=O)ONC(=O)C(N)=O
inactive: dose: 50.0 mg/kg/injection, schedule: Q01DX001 (ip), vehicle: saline 95 % of control | [7] 101 % of control | [8] 95 % of control | dose: 400.0 mg/kg/injection, schedule: Q01DX001 (ip), vehicle: saline 103 % of control

O=C(Nc1cc2ccccc2nc1-c1ccccc1)c1ccccc1
inactive: [7] 92 % of control

Cc1ccc(S(=O)(=O)Nc2ccc(NS(=O)(=O)c3ccc(C)cc3)cc2)cc1
inactive: [9] 97 % of control | [10] 105 % of control | [11] 94 % of control | [12] 95 % of control | [13] 94 % of control | [14] 101 % of control

C[CH2][Sn]([CH2]C)([CH2]C)[S]Cc1ccccc1
inactive: dose: 1.56 mg/kg/injection, schedule: Q01DX009 (ip), vehicle: saline with Tween-80 97 % of control | dose: 3.13 mg/kg/injection, schedule: Q01DX009 (ip), vehicle: saline with Tween-80 95 % of control | dose: 6.25 mg/kg/injection, schedule: Q01DX009 (ip), vehicle: saline with Tween-80 87 % of control

COC(=O)c1cc2c(s1)C(=O)c1ccccc1-2
inactive: [10] 104 % of control | [12] 94 % of control | [14] 105 % of control

Cc1cccc(CCSCCc2cccc(C)[n+]2[O-])[n+]1[O-]
inactive: [7] 96 % of control | [8] 92 % of control

Cc1ccc(C)c(NC(=O)C2CCCCC2C(=O)O)c1 (stereo unspecified)
inactive: [15] 118 % of control | [16] 96 % of control | [17] 103 % of control

Cc1cc(N(CCCCl)CCCCl)ccc1C=Nc1cc(Br)c(O)c(Br)c1
inactive: [10] 94 % of control | [12] 95 % of control | [14] 96 % of control

O=C(O)C12CCC(CC1Br)C2 (stereo unspecified)
inactive: dose: 75.0 mg/kg/injection, schedule: Q01DX001 (ip), vehicle: acetone 105 % of control | [9] 102 % of control | dose: 150.0 mg/kg/injection, schedule: Q01DX001 (ip), vehicle: acetone 106 % of control | [11] 110 % of control | dose: 300.0 mg/kg/injection, schedule: Q01DX001 (ip), vehicle: acetone 102 % of control | [13] 102 % of control

CCCCOC(CN)C(Cl)(Cl)Cl (stereo unspecified)
inactive: dose: 6.0 mg/kg/injection, schedule: Q04DX002 (ip), vehicle: saline 96 % of control and 97 % of control | dose: 12.0 mg/kg/injection, schedule: Q04DX002 (ip), vehicle: saline 104 % of control and 87 % of control | dose: 12.5 mg/kg/injection, schedule: Q01DX009 (ip), vehicle: saline 97 % of control and 98 % of control | [11] 96 % of control and 101 % of control | dose: 200.0 mg/kg/injection, schedule: Q04DX002 (ip), vehicle: saline 97 % of control

CCOC(=O)NC12c3ccccc3C(c3ccccc31)C(C(=O)O)C2C(=O)O (stereo unspecified)
inactive: dose: 100.0 mg/kg/injection, schedule: Q04DX003 (ip), vehicle: saline sonified 90 % of control | dose: 200.0 mg/kg/injection, schedule: Q04DX003 (ip), vehicle: saline sonified 119 % of control | dose: 400.0 mg/kg/injection, schedule: Q04DX003 (ip), vehicle: saline sonified 90 % of control

O=C(Nc1ccc(CCO)cc1)Nc1cccc(Cl)c1Cl
inactive: dose: 100.0 mg/kg/injection, schedule: Q01DX009 (ip), vehicle: Klucel (hydroxypropylcellulose) (HPC) 91 % of control | dose: 200.0 mg/kg/injection, schedule: Q01DX009 (ip), vehicle: Klucel (hydroxypropylcellulose) (HPC) 91 % of control | dose: 400.0 mg/kg/injection, schedule: Q01DX009 (ip), vehicle: Klucel (hydroxypropylcellulose) (HPC) 100 % of control

Cc1c(Cl)cccc1NC(=O)Nc1cccc2c(O)cccc12
inactive: dose: 50.0 mg/kg/injection, schedule: Q01DX009 (ip), vehicle: saline with Tween-80 92 % of control | [1] 89 % of control | [4] 86 % of control and 89 % of control | [2] 90 % of control | [5] 86 % of control and 91 % of control | dose: 200.0 mg/kg/injection, schedule: Q04DX003 (ip), vehicle: saline with Tween-80 88 % of control | [3] 89 % of control | dose: 400.0 mg/kg/injection, schedule: Q01DX009 (ip), vehicle: saline with Tween-80 94 % of control and 87 % of control | [6] 87 % of control and 89 % of control

CN(C)C(C)(C)CC(C)(C)C
inactive: dose: 25.0 mg/kg/injection, schedule: Q04DX003 (ip), vehicle: saline with Tween-80 103 % of control | dose: 50.0 mg/kg/injection, schedule: Q04DX003 (ip), vehicle: saline with Tween-80 106 % of control | dose: 100.0 mg/kg/injection, schedule: Q04DX003 (ip), vehicle: saline with Tween-80 103 % of control

Cc1ccc([N+](=O)[O-])cc1NC(=O)Nc1ccccc1C(N)=O
inactive: [15] 114 % of control | [16] 103 % of control | [17] 94 % of control
